From US20250312369A1, “ANTI-AGING AND ANTI-INFLAMMATORY COMPOSITIONS COMPRISING NICOTINAMIDE MONONUCLEOTIDE AND RESVERATROL AND USES THEREOF” (WONDERFEEL, priority 2022, published 2025)

Assays:
[1] = system: human lung epithelial cell line (A549); assay: LDH release after hydrogen peroxide and hypoxic injury in A549 cells; assay type: cell-based; settings: 100 micromolar H2O2, 18 hours at 37° C., 95% nitrogen and 5% carbon dioxide, treatment agents 10 micromolar in the media
Method: In order to model cytoprotective effects of the invention, a reductionist in vitro model was employed wherein a human lung epithelial cell line (A549) was exposed to severe oxidant and hypoxic stress. Cultured A549 cells were placed in 96 well plates, incubated in Dulbecco's Modified Eagle's Medium (DMEM), and allowed to grow to confluence over 72 hours. Cellular injury was created by the addition into the media of 100 micromolar hydrogen peroxide (H2O2), followed by incubation at 37° C. for 18 hours in an atmosphere of 95% nitrogen and 5% carbon dioxide, which maintained a pH in the incubation media of 7.4. Three experimental arms were evaluated, using quadruplicate replicates, as follows: a) media control, b) NMN, and c) NMN plus resveratrol and hydroxytyrosol. A control arm was examined that was not exposed to hydrogen peroxide. The treatment agents were added such that their final concentration in the media was 10 micromolar. lactate dehydrogenase (LDH) was assayed in the media after 18 hours using a commercial kit, based upon a colorimetric change quantified by visible spectrophotometry.

[2] = prediabetic women, clinical trial 2021; cited from earlier work
[3] = animals and humans, even at high doses; cited from earlier work
sirtuin-1 = settings: 500 mg/day, healthy and slightly overweight subjects; cited from earlier work

Compound: NC(=O)c1ccc[n+]([C@@H]2O[C@H](COP(=O)([O-])O)[C@@H](O)[C@H]2O)c1 [NMN, 3-carbamoyl-1-[5-O-(hydroxyphosphinato)-β-D-ribofuranosyl] pyridinium]
- reduction in the elevation in LDH release produced by addition of hydrogen peroxide alone [1]: 14%
- muscular insulin sensitivity [2]: improve muscular insulin sensitivity

Compound: C[N+](C)(C)[C@@H](Cc1c[nH]c(=S)[nH]1)C(=O)[O-] [ergothioneine, (2S)-3-(2-sulfanylidene-2,3-dihydro-1H-imidazol-4-yl)-2-(trimethylazaniumyl)propanoate]
- toxicity or adverse effects associated with administration [3]: no toxicity or adverse effects

Compound: Oc1ccc(/C=C/c2cc(O)cc(O)c2)cc1 [resveratrol, 3,4′,5-trihydroxy-trans-stilbene]
- gene expression and serum concentration of sirtuin-1 (sirtuin-1): higher gene expression and serum concentration of sirtuin-1
